Assay results published in article PMC4780411 (Journal of chemical information and modeling, 2015).

Assays:
human ERα = target: T1, human ERα (Homo sapiens, UniProt P03372); assay: competitive radiometric binding assay with [3H]estradiol, ERα
T1 sequence (P03372 1-595): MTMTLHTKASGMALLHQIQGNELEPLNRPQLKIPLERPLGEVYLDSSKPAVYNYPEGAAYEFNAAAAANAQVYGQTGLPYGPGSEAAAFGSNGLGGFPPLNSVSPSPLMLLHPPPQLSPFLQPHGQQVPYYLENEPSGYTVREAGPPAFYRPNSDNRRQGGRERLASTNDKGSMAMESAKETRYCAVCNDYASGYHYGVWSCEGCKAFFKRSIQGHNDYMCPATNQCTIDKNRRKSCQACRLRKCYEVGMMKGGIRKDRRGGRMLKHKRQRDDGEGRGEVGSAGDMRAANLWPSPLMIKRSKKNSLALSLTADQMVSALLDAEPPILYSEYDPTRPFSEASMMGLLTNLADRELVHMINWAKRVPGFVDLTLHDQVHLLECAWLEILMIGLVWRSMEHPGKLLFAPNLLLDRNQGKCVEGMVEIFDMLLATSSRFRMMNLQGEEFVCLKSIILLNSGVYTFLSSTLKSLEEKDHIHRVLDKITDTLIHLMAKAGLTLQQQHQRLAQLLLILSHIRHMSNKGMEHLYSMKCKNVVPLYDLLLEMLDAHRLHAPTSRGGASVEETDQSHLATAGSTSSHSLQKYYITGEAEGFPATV

human ERβ = human ERβ (Homo sapiens, UniProt Q92731); assay: competitive radiometric binding assay with [3H]estradiol, ERβ
Chain of human ERβ (Q92731 whole entry): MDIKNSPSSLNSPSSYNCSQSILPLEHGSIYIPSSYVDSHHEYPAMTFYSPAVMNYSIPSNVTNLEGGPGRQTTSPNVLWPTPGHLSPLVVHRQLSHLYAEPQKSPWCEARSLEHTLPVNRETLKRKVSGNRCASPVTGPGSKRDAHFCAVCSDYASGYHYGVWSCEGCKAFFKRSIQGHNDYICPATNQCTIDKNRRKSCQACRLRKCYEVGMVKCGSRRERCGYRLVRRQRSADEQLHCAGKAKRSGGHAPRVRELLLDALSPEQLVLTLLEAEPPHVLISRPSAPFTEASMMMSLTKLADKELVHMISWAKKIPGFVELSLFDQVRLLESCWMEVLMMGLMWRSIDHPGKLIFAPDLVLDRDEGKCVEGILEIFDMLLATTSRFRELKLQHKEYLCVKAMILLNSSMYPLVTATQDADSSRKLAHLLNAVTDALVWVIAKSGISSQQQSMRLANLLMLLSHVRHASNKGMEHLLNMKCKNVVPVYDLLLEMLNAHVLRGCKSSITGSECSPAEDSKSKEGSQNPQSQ

Compound O=C1C[C@@H](c2ccc(O)cc2)Oc2cc(O)cc(O)c21 [NCI-34875, Naringenin] has a Ki (human ERα) of 2.56 ± 0.5 µM and a Ki (human ERβ) of 3.1 ± 0.9 µM.
